This is an account of results in the OPERA property sets (Mansouri et al. 2018).

Conditions in the first series: not given
For orientation: melting point means the temperature, or range, at which the solid turns liquid. `O=C1c2ccccc2C(=O)N1CCBr` yielded a melting point of 82.5 °C.

The compound `CCCCC(=O)N(C)C` came in with a melting point of -51 °C.

The term boiling point denotes the temperature at which the vapour pressure of the liquid equals the pressure above it. `O=C(O)C(Cl)Br` (racemic): the boiling point was 215 °C and the melting point was 31.5 °C.

Turning to `CCC(C)(C)CCC(C)C`, the boiling point came to 153 °C.

For `O=C=Nc1ccc(Cc2ccc(N=C=O)cc2)cc1`, the melting point came out at 38 °C.

In turn, `CCCC=CC(=O)O` gave a boiling point of 216 °C and a melting point of 36.5 °C.

With `NC(=O)C#CC#CC#CCO`, the melting point amounted to 140 °C.

With `O=C(OC(=O)C(F)(F)C(F)(F)F)C(F)(F)C(F)(F)F`, the boiling point amounted to 73 °C.

As to `CCCCCCCCC#N`, the boiling point amounted to 224 °C, the melting point is -34.2 °C and the ready biodegradability result is listed as “readily biodegradable”.

On to `CCCCC(C)(C)C`, for which the log10 biodegradation half-life (days) was determined as 0.602, the log10 vapour pressure (mmHg) was found to be 1.53 and the melting point is -121 °C.

Consider `Cc1ccccc1Oc1cccnn1`, for which the melting point is 78 °C.

Turning to `CCCCCCCCCCCCCCCCCCCCCCCCCCCCO`, the melting point is 83.3 °C and the ready biodegradability entry is given as “readily biodegradable”.

Turning to `CC(C)(C)c1cc(CO)cc(C(C)(C)C)c1O`, the melting point turned out to be 140 °C and the ready biodegradability result was “not readily biodegradable”.

`Nc1cc(F)c(F)c(F)c1F`: the melting point is 28 °C.

`Cc1c(Cl)cccc1Nc1ncccc1C(=O)O` had a melting point of 234 °C.

For `Cc1cc(Cl)c(Cl)cc1Cl`, the boiling point is 231 °C, the log10 Henry constant (atm·m³/mol) is -2.82 and the melting point stood at 82.4 °C.

In turn, `CCOC(=O)C(=O)CC(C)=O` registered a boiling point of 214 °C and a melting point of 18 °C.

As to `CCC(C)=O`, the log10 Henry constant (atm·m³/mol) was -4.24, the log10 Koa came out at 2.71, the log10 vapour pressure (mmHg) is 1.96 and the melting point is -86.6 °C. Also, the ready biodegradability entry is “readily biodegradable”.

With `Clc1ccc(Oc2ccc(Cl)cc2Cl)cc1`, the log10 vapour pressure (mmHg) is -3.82.

`CC(C)Nc1ccc(Nc2ccccc2)cc1`: the melting point turned out to be 74 °C and the ready biodegradability result was “not readily biodegradable”.

`O=c1c(O)c(-c2ccccc2)oc2ccccc12` returned a melting point of 172 °C.

Compound `Cc1cc(C)cc(CO)c1` registered a boiling point of 220 °C.

Consider `NNC(N)=S`, for which the melting point turned out to be 183 °C and the ready biodegradability entry is reported as “not readily biodegradable”.

In turn, `CC(=O)Oc1ccc2c(c1)CC[C@@H]1[C@@H]2CC[C@]2(C)C(=O)[C@H](OC(C)=O)C[C@@H]12` yielded a melting point of 180 °C.

With `CCC(CO)(CO)CO`, the ready biodegradability result is on record as “not readily biodegradable”.

Compound `O=C(O)c1cc2ccccc2o1` had a boiling point of 312 °C and a melting point of 192 °C.

Turning to `BrCc1ccc(CBr)cc1`, the boiling point was determined as 245 °C and the melting point is 144 °C.

In the case of `CCBr`, the boiling point stood at 38.5 °C, the log10 Koa came out at 2.11, the log10 vapour pressure (mmHg) worked out at 2.67 and the melting point is -119 °C. The ready biodegradability entry is listed as “not readily biodegradable”.

For the compound `CCCCCCCCc1ccc(Nc2ccc(CCCCCCCC)cc2)cc1`, the ready biodegradability result is listed as “not readily biodegradable”.

For the compound `CC1=CC(C)(C)Nc2ccccc21`, the boiling point worked out at 260 °C, the melting point turned out to be 26.5 °C and the ready biodegradability result was “not readily biodegradable”.

Turning to `CCOC(=O)CC`, the boiling point stood at 99.1 °C, the log10 Koa was 3.15, the log10 vapour pressure (mmHg) came out at 1.55 and the melting point was -73.9 °C.

The compound `CCOC(=O)c1ccco1` yielded a boiling point of 197 °C, a log10 vapour pressure (mmHg) of -0.432 and a melting point of 34.5 °C.

`Cc1ccc2c(c1)CCC2` showed a boiling point of 202 °C and a log10 biodegradation half-life (days) of 0.301.

Consider `CC(C)(O)C#CC(C)(C)O`, for which the boiling point stood at 205 °C and the melting point is 95 °C.

In turn, `O=C(O)C1C(c2ccccc2)C(C(=O)O)C1c1ccccc1` (stereo unspecified) registered a melting point of 228 °C.

As to `CCOC(=O)C1CC1`, the boiling point was determined as 134 °C.

Consider `N#Cc1cc(Cl)ccc1N`, for which the melting point was 97 °C.

Consider `CC(=O)Nc1ccccc1Cl`, for which the log10 Koc (L/kg) amounted to 1.58 and the melting point stood at 89 °C.

On to `Cc1cc[nH]c(=O)c1`, for which the boiling point amounted to 308 °C and the melting point was 130 °C.

The same series, now with this note: fish.
In turn, `Cc1cc(Cl)c(Cl)cc1Cl` showed a log10 BCF of 3.87 and a log10 biotransformation half-life (days) of 2.01.

In turn, `Clc1ccc(Oc2ccc(Cl)cc2Cl)cc1` showed a log10 biotransformation half-life (days) of 1.72.
